Molecular target: T1, DNA polymerase theta (POLQ) (2-894)
T1 construct: 2-894
Experiment: ATPase Assay
Experimental: POLθ-mediated ATP hydrolysis was measured using the ADP-Glo Kinase Assay (Promega Corporation, Madison, WI). Reactions were performed in white 384-well small-volume microplates (Greiner Bio-One, Frickenhausen, Germany) using a total volume of 15 μL. The ATPase reaction consisted of 1 nM biotinylated Avi-POLθ[2-894], 5 nM of a 50 nucleotide poly-thymine repeat single-stranded DNA (PolyT(50) ssDNA), and 100 μM ATP in 5 μL of assay buffer (50 mM Tris, pH 7.5, 80 mM KCl, 10 MgCl2, 1 mM DTT, 5% glycerol, 0.01% BSA, 0.01% Tween-20). Inhibition of POLΘATPase activity was determined by preparing 11-point serial dilutions of the test compounds in 100% DMSO, then transferring 30 nL of the compounds into the ATPase reaction using an Echo acoustic liquid handler (Beckman Coulter, Brea, CA). DMSO-treated wells containing either all of the reaction components (1 nM biotinylated Avi-POLθ[2-894], 5 nM PolyT(50) ssDNA, 100 μM ATP) or with assay buffer substituted for the biotinylated Avi-POLθ[2-894](0 nM biotinylated Avi-POLθ[2-894], 5 nM PolyT(50) ssDNA, 100 μM ATP) were used to define the maximum and minimum response in the assay. Following a one-hour incubation at ambient temperature, 5 μL of ADP-Glo Reagent was added to the ATPase reaction, and this mixture was allowed to incubate at ambient temperature for an additional hour. Lastly, 5 μL of Kinase Detection Reagent was added, followed by a third one-hour incubation at ambient temperature. The reagent concentrations listed represent the amounts only in the 5 μL ATPase reaction volume.

Row | IC50 [nM] | SMILES
1 | 8 | COc1cnc(Cl)cc1-c1cc(C)ncc1C(=O)Nc1nc2c(s1)CN(C(=O)c1cccnc1Cl)C2 [US20250230171, Compound 524]
2 | 8 | COc1cnc(Cl)cc1-c1cc(C)ncc1C(=O)Nc1nc2c(s1)CN(C(=O)c1cc(C)nc(C(F)F)n1)C2 [US20250230171, Compound 530]
3 | 8 | COc1cnc(Cl)cc1-c1cc(C)ncc1C(=O)Nc1nc2c(s1)CN(C(=O)c1cnc(OC)c(C(F)F)n1)C2 [US20250230171, Compound 531]
4 | 32.5 | COc1ccc(C#N)cc1-c1cc(C)ncc1C(=O)Nc1nc2c(s1)CN(C(=O)c1cccc(C(F)F)n1)C2 [US20250230171, Compound 538]
5 | 32.5 | COc1ncc(Cl)cc1-c1cc(C)ncc1C(=O)Nc1nc2c(s1)CN(C(=O)c1cccc(C(F)F)n1)C2 [US20250230171, Compound 539]
6 | 32.5 | COc1ncc(C#N)cc1-c1cc(C)ncc1C(=O)Nc1nc2c(s1)CN(C(=O)c1ccc(C(F)F)cn1)C2 [US20250230171, Compound 540]
7 | 32.5 | COc1cnc(Cl)cc1-c1cc(C)ncc1C(=O)Nc1nc2c(s1)CN(C(=O)c1cncc(C(F)F)n1)C2 [US20250230171, Compound 541]

The next lines start with the compound.

Row | SMILES | IC50 [nM]
8 | COc1cnc(Cl)cc1-c1cc(C)ncc1C(=O)Nc1nc2c(s1)CN(C(=O)c1nccnc1C)C2 [US20250230171, Compound 520] | 8
9 | COc1cnc(Cl)cc1-c1cc(C)ncc1C(=O)Nc1nc2c(s1)CN(C(=O)c1cncn1C1CC1)C2 [US20250230171, Compound 527] | 8
10 | COc1cnc(Cl)cc1-c1cc(C)ncc1C(=O)Nc1nc2c(s1)CN(C(=O)c1nc(C)c(C)o1)C2 [US20250230171, Compound 529] | 8
11 | COc1cnc(Cl)cc1-c1cc(C)ncc1C(=O)Nc1nc2c(s1)CN(C(=O)C1CC3(CC(C#N)C3)C1)C2 (stereo unspecified) [US20250230171, Compound 532] | 8
12 | COc1cc2nn(C)cc2cc1-c1cc(C)ncc1C(=O)Nc1nc2c(s1)CN(C(=O)c1cccnc1OC)C2 [US20250230171, Compound 533] | 8
13 | COc1cnc(Cl)cc1-c1cc(C)ncc1C(=O)Nc1nc2c(s1)CN(C(=O)c1nc(C)cn1C)C2 [US20250230171, Compound 543] | 32.5
14 | COc1ccc(C(=O)N2Cc3nc(NC(=O)c4cnc(C)cc4-c4cc(Cl)ncc4OC)sc3C2)nn1 [US20250230171, Compound 545] | 32.5
15 | COc1cnc(Cl)cc1-c1cc(C)ncc1C(=O)Nc1nc2c(s1)CN(C(=O)c1cnc(C)n1C)C2 [US20250230171, Compound 546] | 100
16 | COc1cnc(Cl)cc1-c1cc(C)ncc1C(=O)Nc1nc2c(s1)CN(C(=O)c1ncc(Cl)cc1C(C)(F)F)C2 [US20250230171, Compound 595] | 8
